# Reference: patent US9775844B2, “Heterocyclic compounds and uses thereof” (Infinity Pharmaceuticals, Inc., priority 2014, dated 2017)
# How the values were obtained:
# PI3K δ = PI3K δ (Homo sapiens (Human), UniProt O00329); assay: PI3-Kinase Promega ADP-Glo Max assay; type: biochemical
# PI3K γ = PI3K γ (Homo sapiens (Human), UniProt P48736); assay: PI3-Kinase Promega ADP-Glo Max assay; type: biochemical
# PI3K β = PI3K β (Homo sapiens (Human), UniProt P42338); assay: PI3-Kinase Promega ADP-Glo Max assay; type: biochemical
# Sequence of PI3K β (P42338 whole entry): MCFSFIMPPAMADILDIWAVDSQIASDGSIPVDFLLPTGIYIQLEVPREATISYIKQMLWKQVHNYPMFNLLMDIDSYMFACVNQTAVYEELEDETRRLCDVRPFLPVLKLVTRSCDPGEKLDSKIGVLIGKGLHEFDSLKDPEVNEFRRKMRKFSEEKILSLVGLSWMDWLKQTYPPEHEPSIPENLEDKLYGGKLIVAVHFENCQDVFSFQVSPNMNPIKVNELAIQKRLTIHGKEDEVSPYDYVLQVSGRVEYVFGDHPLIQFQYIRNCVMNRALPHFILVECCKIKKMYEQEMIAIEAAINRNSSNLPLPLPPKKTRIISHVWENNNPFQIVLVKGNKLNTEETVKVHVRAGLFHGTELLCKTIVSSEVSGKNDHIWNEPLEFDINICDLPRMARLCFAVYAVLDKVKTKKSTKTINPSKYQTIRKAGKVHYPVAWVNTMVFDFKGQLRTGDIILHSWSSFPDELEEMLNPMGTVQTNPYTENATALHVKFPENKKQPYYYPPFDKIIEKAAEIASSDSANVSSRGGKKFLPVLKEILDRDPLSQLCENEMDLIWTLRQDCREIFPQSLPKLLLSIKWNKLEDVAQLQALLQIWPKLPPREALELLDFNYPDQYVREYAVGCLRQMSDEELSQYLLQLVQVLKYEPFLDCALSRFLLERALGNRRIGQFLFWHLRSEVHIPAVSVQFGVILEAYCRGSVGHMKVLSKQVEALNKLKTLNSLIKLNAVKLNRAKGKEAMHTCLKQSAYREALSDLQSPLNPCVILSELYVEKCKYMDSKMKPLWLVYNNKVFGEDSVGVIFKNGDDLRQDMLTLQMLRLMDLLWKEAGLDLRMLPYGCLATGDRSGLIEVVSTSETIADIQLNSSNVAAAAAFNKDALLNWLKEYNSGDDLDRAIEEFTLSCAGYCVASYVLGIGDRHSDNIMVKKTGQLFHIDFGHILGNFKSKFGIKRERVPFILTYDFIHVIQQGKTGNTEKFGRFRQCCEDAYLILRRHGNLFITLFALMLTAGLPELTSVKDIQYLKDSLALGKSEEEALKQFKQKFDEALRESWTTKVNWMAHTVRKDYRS
# Sequence of PI3K β (P27986 whole entry partner): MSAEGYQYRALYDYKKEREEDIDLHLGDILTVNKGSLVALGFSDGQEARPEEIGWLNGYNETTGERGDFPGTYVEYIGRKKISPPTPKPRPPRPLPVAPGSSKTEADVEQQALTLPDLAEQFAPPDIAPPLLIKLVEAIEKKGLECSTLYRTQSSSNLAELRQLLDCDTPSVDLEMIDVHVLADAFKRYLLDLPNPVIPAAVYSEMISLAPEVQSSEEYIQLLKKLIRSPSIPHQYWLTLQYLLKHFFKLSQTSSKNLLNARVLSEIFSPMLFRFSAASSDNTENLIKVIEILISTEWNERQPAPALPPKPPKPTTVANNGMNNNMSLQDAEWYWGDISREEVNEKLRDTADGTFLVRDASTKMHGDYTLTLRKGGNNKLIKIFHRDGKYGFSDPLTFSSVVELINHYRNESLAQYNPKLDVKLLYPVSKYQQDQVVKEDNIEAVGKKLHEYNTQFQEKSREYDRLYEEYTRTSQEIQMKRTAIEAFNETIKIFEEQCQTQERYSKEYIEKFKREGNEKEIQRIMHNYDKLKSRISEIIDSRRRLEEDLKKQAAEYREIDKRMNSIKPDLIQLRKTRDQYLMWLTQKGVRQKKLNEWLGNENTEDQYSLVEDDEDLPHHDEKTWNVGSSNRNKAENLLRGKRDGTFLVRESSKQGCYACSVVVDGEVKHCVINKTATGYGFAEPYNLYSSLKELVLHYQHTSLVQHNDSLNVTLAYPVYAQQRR
# PI3K α = PI3K α (Homo sapiens (Human), UniProt P42336); assay: PI3-Kinase Promega ADP-Glo Max assay; type: biochemical
# Sequence of PI3K α (P42336 whole entry): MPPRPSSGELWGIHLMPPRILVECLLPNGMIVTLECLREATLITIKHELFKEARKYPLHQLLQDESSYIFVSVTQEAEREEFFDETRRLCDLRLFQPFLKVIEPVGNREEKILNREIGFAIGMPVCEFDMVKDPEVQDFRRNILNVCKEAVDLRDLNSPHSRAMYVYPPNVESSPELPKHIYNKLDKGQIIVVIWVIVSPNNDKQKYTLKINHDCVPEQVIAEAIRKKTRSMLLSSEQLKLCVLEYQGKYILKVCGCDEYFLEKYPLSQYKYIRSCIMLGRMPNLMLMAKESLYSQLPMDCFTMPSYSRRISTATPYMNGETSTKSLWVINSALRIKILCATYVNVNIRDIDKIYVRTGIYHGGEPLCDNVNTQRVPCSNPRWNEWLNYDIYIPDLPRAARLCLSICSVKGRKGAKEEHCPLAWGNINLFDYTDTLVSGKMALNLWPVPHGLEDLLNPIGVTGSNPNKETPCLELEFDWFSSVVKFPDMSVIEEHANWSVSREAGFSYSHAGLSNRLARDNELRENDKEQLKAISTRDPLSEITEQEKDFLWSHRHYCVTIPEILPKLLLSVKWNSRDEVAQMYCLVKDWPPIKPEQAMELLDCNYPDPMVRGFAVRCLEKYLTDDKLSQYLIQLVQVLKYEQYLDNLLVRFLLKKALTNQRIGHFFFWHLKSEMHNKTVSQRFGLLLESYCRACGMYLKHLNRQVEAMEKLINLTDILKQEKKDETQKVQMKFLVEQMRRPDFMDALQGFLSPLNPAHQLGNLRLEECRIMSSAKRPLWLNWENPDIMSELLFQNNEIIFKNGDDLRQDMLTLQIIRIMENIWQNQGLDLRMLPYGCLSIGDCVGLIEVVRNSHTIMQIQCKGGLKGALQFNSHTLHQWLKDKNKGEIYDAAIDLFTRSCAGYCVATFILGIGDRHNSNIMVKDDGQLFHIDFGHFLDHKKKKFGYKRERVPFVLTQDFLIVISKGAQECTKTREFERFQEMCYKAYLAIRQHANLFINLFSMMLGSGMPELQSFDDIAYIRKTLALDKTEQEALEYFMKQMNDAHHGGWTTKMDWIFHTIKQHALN
# Sequence of PI3K α (P27986 whole entry partner): as the sequence (P27986 whole entry partner) above
# Method: Promega ADP-Glo Max assay kit (Cat. No. V7002) was utilized to determine IC50 values for α, β, δ and γ isoforms of human Class I PI3 kinases (Millipore). […] Reactions were incubated at room temperature for 2 hours followed by addition of 25 uL of stop solution. After a 40-minute incubation at room temperature, 50 uL of Promega detection mix was added followed by incubation for 1 hour at room temperature. Plates were then read on Envision plate reader in lunimescence mode. Data was converted to % inhibition using the following equation below:
# [formula] where S is the sample luminescence, Pos is a positive control without added PI3K, Neg is the negative control without added compound. Data was then plotted as % inhibition vs compound concentration.
# [1] = biological target: PI3K-γ in RAW264.7 macrophages (Mus musculus (Mouse), UniProt Q9JHG7); assay: Raw264.7 p110 γ assay (PI3K-γ selective cellular assay, C5a-stimulated phospho-AKT); type: cell-based; conditions: for IC50: phospho-AKT, read-out: Raw264.7 p110 γ assay IC50
# From the text: Briefly, serum-starved RAW264.7 cells are stimulated with a known GPCR agonist C5a. […] Cells can be treated with test compounds prior to, simultaneously with, or subsequent to the stimulation by C5a. RAW 264.7 cells respond to the complement component fragment C5a through activation of the C5a receptor, and the C5a receptor activates macrophages and induces cell migration.
# PI3K-δ in RAJI cells = PI3K-δ in RAJI cells (Homo sapiens (Human), UniProt O00329); assay: RAJI p110 δ assay (PI3K-δ selective cellular assay, phospho-AKT); type: cell-based; conditions: phospho-AKT; read-out: RAJI p110 δ assay IC50
# Sequence of PI3K-δ in RAJI cells (O00329 whole entry): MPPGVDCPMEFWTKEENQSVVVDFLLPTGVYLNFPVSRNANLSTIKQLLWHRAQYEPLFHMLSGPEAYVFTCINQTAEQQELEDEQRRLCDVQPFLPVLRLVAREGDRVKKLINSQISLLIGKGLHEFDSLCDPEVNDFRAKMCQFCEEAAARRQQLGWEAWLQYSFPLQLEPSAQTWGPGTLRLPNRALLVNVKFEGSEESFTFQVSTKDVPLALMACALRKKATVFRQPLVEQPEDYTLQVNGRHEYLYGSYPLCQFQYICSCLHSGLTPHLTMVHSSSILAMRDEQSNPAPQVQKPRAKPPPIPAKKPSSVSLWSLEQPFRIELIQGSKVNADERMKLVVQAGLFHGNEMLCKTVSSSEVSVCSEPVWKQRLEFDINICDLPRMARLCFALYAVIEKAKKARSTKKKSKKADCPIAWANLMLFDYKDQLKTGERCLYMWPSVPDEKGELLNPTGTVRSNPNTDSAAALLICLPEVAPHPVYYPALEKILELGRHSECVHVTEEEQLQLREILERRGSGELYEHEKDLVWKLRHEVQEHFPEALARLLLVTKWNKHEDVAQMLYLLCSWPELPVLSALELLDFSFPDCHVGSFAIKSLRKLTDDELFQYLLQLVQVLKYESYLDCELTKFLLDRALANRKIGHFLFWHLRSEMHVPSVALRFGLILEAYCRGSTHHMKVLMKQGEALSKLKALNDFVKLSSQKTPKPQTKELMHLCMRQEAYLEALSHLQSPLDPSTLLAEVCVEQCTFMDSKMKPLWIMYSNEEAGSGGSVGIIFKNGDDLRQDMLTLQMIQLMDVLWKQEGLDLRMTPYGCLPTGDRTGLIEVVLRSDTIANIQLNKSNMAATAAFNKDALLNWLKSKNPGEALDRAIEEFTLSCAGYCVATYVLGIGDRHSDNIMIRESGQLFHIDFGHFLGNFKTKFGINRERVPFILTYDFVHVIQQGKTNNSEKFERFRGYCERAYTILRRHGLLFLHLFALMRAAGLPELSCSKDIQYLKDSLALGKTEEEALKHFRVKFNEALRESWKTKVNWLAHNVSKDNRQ
# Sequence of PI3K-δ in RAJI cells (P27986 whole entry partner): as the sequence (P27986 whole entry partner) above
# Sequence of PI3K δ (O00329 whole entry): as the sequence (O00329 whole entry) above
# Sequence of PI3K δ (P27986 whole entry partner): as the sequence (P27986 whole entry partner) above
SMILES,IC50 (PI3K δ) [µM],IC50 (PI3K γ) [µM],PI3K δ/PI3K γ IC50 (selectivity) (PI3K γ),IC50 (PI3K β) [µM],IC50 (PI3K α) [µM],RAJIδ/Raw264.7 γ IC50 (selectivity) [1],IC50 [1] [µM],IC50 (PI3K-δ in RAJI cells) [µM]
C[C@H](NC(=O)c1c(N)nn2cccnc12)c1cc2cccc(C#Cc3cocn3)c2c(=O)n1-c1ccccc1 [Compound 66],1 to 5,0.001 to 0.1,X (X = 10 to <50),1 to 5,5 to 10,X (X = 10 to <50),0.001 to 0.05,0.1 to 0.5
Cc1ncccc1C#Cc1cccc2cc([C@H](C)NC(=O)c3c(N)nn4cccnc34)n(-c3ccccc3)c(=O)c12 [Compound 67],5 to 10,1 to 5,W (W = >1 to <10),5 to 10,5 to 10,X (X = 10 to <50),0.1 to 10,1 to 10
Cc1cnc(C(=O)N[C@@H](C)c2cc3cccc(C#Cc4cnn(C)c4)c3c(=O)n2-c2ccccc2)c(N)n1 [Compound 68],5 to 10,1 to 5,W (W = >1 to <10),5 to 10,5 to 10,W (W = >1 to <10),0.1 to 10,1 to 10
C/C=C/c1cccc2cc([C@H](C)NC(=O)c3c(N)nn4cccnc34)n(-c3ccccc3)c(=O)c12 [Compound 70],5 to 10,0.1 to 0.5,X (key: V = 0.1 to 1; W = >1 to <10; X = 10 to <50; Y = 50 to <850),5 to 10,5 to 10,X (X = 10 to <50),0.001 to 0.05,0.001 to 0.1
C[C@H](NC(=O)c1c(N)nn2cccnc12)c1cc2cccc(C#CC3CCNCC3)c2c(=O)n1-c1ccccc1 [Compound 72],5 to 10,0.5 to 1,X (X = 10 to <50),5 to 10,5 to 10,W (W = >1 to <10),0.1 to 10,1 to 10
C[C@H](NC(=O)c1c(N)nn2cccnc12)c1cc2cccc(C#Cc3ccnn3C)c2c(=O)n1-c1ccccc1 [Compound 73],5 to 10,0.1 to 0.5,X (X = 10 to <50),5 to 10,5 to 10,Y (Y = 50 to <850),0.001 to 0.05,0.5 to 1
C[C@H](NC(=O)c1c(N)nn2cccnc12)c1cc2cccc(C#CC3CNC3)c2c(=O)n1-c1ccccc1 [Compound 74],1 to 5,0.5 to 1,W (key: V = 0.1 to 1; W = >1 to <10; X = 10 to <50; Y = 50 to <850),5 to 10,5 to 10,W (key: V = 0.1 to 1; W = >1 to <10; X = 10 to <50; Y = 50 to <850),0.1 to 10,1 to 10
Cc1ncsc1C#Cc1cccc2cc([C@H](C)NC(=O)c3c(N)nn4cccnc34)n(-c3ccccc3)c(=O)c12 [Compound 75],5 to 10,1 to 5,W (W = >1 to <10),5 to 10,5 to 10,Y (Y = 50 to <850),0.001 to 0.05,1 to 10
Cc1ncc(C#Cc2cccc3cc([C@H](C)NC(=O)c4c(N)nn5cccnc45)n(-c4ccccc4)c(=O)c23)s1 [Compound 76],5 to 10,0.1 to 0.5,Y (Y = 50 to <850),5 to 10,5 to 10,X (X = 10 to <50),0.001 to 0.05,0.1 to 0.5
Cc1ccc(C#Cc2cccc3cc([C@H](C)NC(=O)c4c(N)nn5cccnc45)n(-c4ccccc4)c(=O)c23)cn1 [Compound 77],5 to 10,0.001 to 0.1,Y (Y = 50 to <850),5 to 10,5 to 10,Y (Y = 50 to <850),0.001 to 0.05,0.5 to 1
